From patent US12421224B2 (BIOGEN MA INC., priority 2019, dated 2025)

Target: T1, Recombinant full length human OGA enzyme (Homo sapiens, UniProt O60502)
T1 construct: Recombinant full length human OGA enzyme; purchased Origene
T1 sequence (O60502 1-916): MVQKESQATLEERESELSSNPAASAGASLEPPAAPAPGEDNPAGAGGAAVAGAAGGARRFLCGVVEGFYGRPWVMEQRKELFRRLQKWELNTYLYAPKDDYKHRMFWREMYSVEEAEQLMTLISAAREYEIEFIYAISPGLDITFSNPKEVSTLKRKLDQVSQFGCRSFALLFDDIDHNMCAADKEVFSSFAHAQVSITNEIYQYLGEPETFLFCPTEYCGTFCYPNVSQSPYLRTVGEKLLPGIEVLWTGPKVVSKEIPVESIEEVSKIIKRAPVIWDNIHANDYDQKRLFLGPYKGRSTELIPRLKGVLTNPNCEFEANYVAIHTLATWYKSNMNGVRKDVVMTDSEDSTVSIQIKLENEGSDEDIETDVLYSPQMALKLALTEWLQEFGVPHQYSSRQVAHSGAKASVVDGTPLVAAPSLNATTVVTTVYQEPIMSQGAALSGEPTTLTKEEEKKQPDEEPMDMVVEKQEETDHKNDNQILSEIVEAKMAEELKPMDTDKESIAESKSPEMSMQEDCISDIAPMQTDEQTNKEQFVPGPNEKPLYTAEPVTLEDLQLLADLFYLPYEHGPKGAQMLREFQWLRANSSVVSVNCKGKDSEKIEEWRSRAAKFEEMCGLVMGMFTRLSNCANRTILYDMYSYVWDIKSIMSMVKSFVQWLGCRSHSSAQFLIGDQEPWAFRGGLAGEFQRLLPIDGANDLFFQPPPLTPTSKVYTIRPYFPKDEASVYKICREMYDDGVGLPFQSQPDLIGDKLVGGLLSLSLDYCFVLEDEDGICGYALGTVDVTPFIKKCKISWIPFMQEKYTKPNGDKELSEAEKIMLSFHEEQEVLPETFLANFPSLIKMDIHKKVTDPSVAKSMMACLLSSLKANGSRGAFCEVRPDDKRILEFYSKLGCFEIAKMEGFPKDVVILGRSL
Test: OGA Enzyme Inhibition Biochemical Assay
Settings: 1 nM OGA, 100 μM 4-MUGlcNAc (Km), pH 6.4, 90 minutes at room temperature, 10-point dose-response starting from 20 μM
Experimental: OGA Enzyme Inhibition Biochemical Assay
Recombinant full length human OGA enzyme was purchased from Origene. 4-MUGlCNAc substrate was purchased from Sigma. All other reagents were purchased from Sigma or Fisher. Assay buffer consists of the Mcllvaine buffer system, pH 6.4 (0.2M Na2HPO4 mixed with 0.1M citric acid) and 0.01% BSA. Reactions consist of 1 nM OGA, 100 μM 4-MUGlcNAc (Km), and compound in a final volume of 10 μl. Reactions were incubated for 90 minutes at room temperature and quenched with […] of 3M glycine, pH 10 and read on a Perkin Elmer Envision plate reader (Ex: 355 nm/Em: 460 nm). Compounds were tested with a 10-point dose-response starting from 20 μM with a 4-fold dilution. Data was fit using GraphPad Prism using a 4-parameter fit with variable slope.

IC50 [nM]	Compound
800	CC(=O)Nc1ncc(CN2C[C@@H](Nc3ccc(F)cn3)[C@H]2C)s1 [Example 2-15, N-(5-(((2R,3R)-3-((5-fluoropyridin-2-yl)amino)-2-methylazetidin-1-yl)methyl)thiazol-2-yl)acetamide]
407	COc1cc(OC2CN(Cc3cnc(NC(C)=O)s3)C2)ncn1 [Example 2-1, N-(5-((3-((6-methoxypyrimidin-4-yl)oxy)azetidin-1-yl)methyl)thiazol-2-yl)acetamide]
570	CC(=O)Nc1ncc(CN2C[C@@H](Nc3ccc(C#N)cn3)[C@H]2C)s1 [Example 2-18, N-(5-(((2R,3R)-3-((5-cyanopyridin-2-yl)amino)-2-methylazetidin-1-yl)methyl)thiazol-2-yl)acetamide]
580	CC(=O)Nc1ncc(CN2CC(Cc3ccccc3)C2)s1 [Example 4-2, N-(5-((3-benzylazetidin-1-yl)methyl)thiazol-2-yl)acetamide]
440	CC(=O)Nc1ncc(CN2C[C@@H](Oc3ccc(C#N)cn3)[C@H]2C)s1 [Example 2-31, N-(5-(((2R,3R)-3-((5-cyanopyridin-2-yl)oxy)-2-methylazetidin-1-yl)methyl)thiazol-2-yl)acetamide]
670	COc1cc(OCC2CN(Cc3cnc(NC(C)=O)s3)C2)ccn1 [Example 2-23, N-(5-((3-(((2-methoxypyridin-4-yl)oxy)methyl)azetidin-1-yl)methyl)thiazol-2-yl)acetamide]
1500	CC(=O)Nc1ncc(CN2CC(COc3ccc(F)cn3)C2)s1 [Example 2-22, N-(5-((3-(((5-fluoropyridin-2-yl)oxy)methyl)azetidin-1-yl)methyl)thiazol-2-yl)acetamide]
110	COc1cc(O[C@@H]2CN(Cc3cnc(NC(C)=O)s3)[C@@H]2C)ncn1 [Example 2-28, N-(5-(((2R,3R)-3-((6-methoxypyrimidin-4-yl)oxy)-2-methylazetidin-1-yl)methyl)thiazol-2-yl)acetamide]
570	COc1cc(N[C@@H]2CN(Cc3cnc(NC(C)=O)s3)[C@@H]2C)ccn1 [Example 2-16, N-(5-(((2R,3R)-3-((2-methoxypyridin-4-yl)amino)-2-methylazetidin-1-yl)methyl)thiazol-2-yl)acetamide]
450	CC(=O)Nc1ncc(CN2C[C@@H](Oc3ccc(F)cn3)[C@H]2C)s1 [Example 2-8, N-(5-(((2R,3R)-3-((5-fluoropyridin-2-yl)oxy)-2-methylazetidin-1-yl)methyl)thiazol-2-yl)acetamide]
480	CC(=O)Nc1ncc(CN2CC(OCc3cc(C)nc(C)c3)C2)s1 [Example 1-2, N-(5-((3-((2,6-dimethylpyridin-4-yl)methoxy)azetidin-1-yl)methyl)thiazol-2-yl)acetamide]
220	CC(=O)Nc1ncc(CN2CC(OCc3noc(C)n3)C2)s1 [Example 1-3, N-(5-((3-((5-methyl-1,2,4-oxadiazol-3-yl)methoxy)azetidin-1-yl)methyl)thiazol-2-yl)acetamide]
170	CC(=O)Nc1ncc(CN2C[C@H](Oc3ncc(F)cn3)[C@H]2C)s1 [Example 2-30, N-(5-(((2R,3S)-3-((5-fluoropyrimidin-2-yl)oxy)-2-methylazetidin-1-yl)methyl)thiazol-2-yl)acetamide]
210	COc1cc(O[C@H]2CN(Cc3cnc(NC(C)=O)s3)[C@@H]2C)ccn1 [Example 2-7, N-(5-(((2R,3S)-3-((2-methoxypyridin-4-yl)oxy)-2-methylazetidin-1-yl)methyl)thiazol-2-yl)acetamide]
194	CC(=O)Nc1ncc(CN2CC(c3ncnc4sccc34)C2)s1 [Example 5-2]
600	COc1cc(O[C@@H]2CN(Cc3cnc(NC(C)=O)s3)[C@@H]2C)ncn1 (single isomer, unassigned) [Example 2-10]
340	CC(=O)Nc1ncc(CN2CC(Oc3ccc(C#N)cn3)C2)s1 [Example 2-5, N-(5-((3-((5-cyanopyridin-2-yl)oxy)azetidin-1-yl)methyl)thiazol-2-yl)acetamide]

IC50 [nM]	Compound
1400	CC(=O)Nc1ncc(CN2CC(CNc3cc(C)nc(C)c3)C2)s1 [Example 2-24, N-(5-((3-(((2,6-dimethylpyridin-4-yl)amino)methyl)azetidin-1-yl)methyl)thiazol-2-yl)acetamide]
1300	CC(=O)Nc1ncc(CN2CC(CNc3cc(C)nc(C)n3)C2)s1 [Example 2-26, N-(5-((3-(((2,6-dimethylpyrimidin-4-yl)amino)methyl)azetidin-1-yl)methyl)thiazol-2-yl)acetamide]
407	COc1cc(NC2CN(Cc3cnc(NC(C)=O)s3)C2)ncn1 [Example 2-11]
350	CC(=O)Nc1ncc(CN2CC(c3ncc(F)cn3)C2)s1 [Example 5-1]
11	COc1cc(N[C@H]2CN(Cc3cnc(NC(C)=O)s3)[C@@H]2C)ccn1 [Example 2-17, N-(5-(((2R,3S)-3-((2-methoxypyridin-4-yl)amino)-2-methylazetidin-1-yl)methyl)thiazol-2-yl)acetamide]
47	CCOc1cc(CC2CN(Cc3cnc(NC(C)=O)s3)C2)ccn1 [Example 4-1, N-(5-((3-((2-ethoxypyridin-4-yl)methyl)azetidin-1-yl)methyl)thiazol-2-yl)acetamide]
390	CC(=O)Nc1ncc(CN2C[C@H](Oc3ncc(F)cn3)[C@H]2C)s1 [Example 2-33, N-(5-(((2R,3S)-3-((5-fluoropyrimidin-2-yl)oxy)-2-methylazetidin-1-yl)methyl)thiazol-2-yl)acetamide]
480	CC(=O)Nc1ncc(CN2CC(COc3cc(C)nc(C)c3)C2)s1 [Example 2-20, N-(5-((3-(((2,6-dimethylpyridin-4-yl)oxy)methyl)azetidin-1-yl)methyl)thiazol-2-yl)acetamide]
> 20	CC(=O)Nc1ncc(CN2CC(Oc3ncccc3C)C2)s1 [Example 2-4, N-(5-((3-((3-methylpyridin-2-yl)oxy)azetidin-1-yl)methyl)thiazol-2-yl)acetamide]
210	COc1cc(CNC2CN(Cc3cnc(NC(C)=O)s3)C2)ccn1 [Example 3-2, N-(5-((3-(((2-methoxypyridin-4-yl)methyl)amino)azetidin-1-yl)methyl)thiazol-2-yl)acetamide]
980	CC(=O)Nc1ncc(CN2C[C@H](Oc3ccc(C#N)cn3)[C@H]2C)s1 [Example 2-32, N-(5-(((2R,3S)-3-((5-cyanopyridin-2-yl)oxy)-2-methylazetidin-1-yl)methyl)thiazol-2-yl)acetamide]
600	COc1cc(O[C@H]2CN(Cc3cnc(NC(C)=O)s3)[C@@H]2C)ncn1 [Example 2-27, N-(5-(((2R,3S)-3-((6-methoxypyrimidin-4-yl)oxy)-2-methylazetidin-1-yl)methyl)thiazol-2-yl)acetamide]
130	CC(=O)Nc1ncc(CN2CC(Nc3ccc(F)cn3)C2)s1 [Example 2-14, N-(5-((3-((5-fluoropyridin-2-yl)amino)azetidin-1-yl)methyl)thiazol-2-yl)acetamide]
33	COc1cc(NC2CN(Cc3cnc(NC(C)=O)s3)C2)ccn1 [Example 2-12, N-(5-((3-((2-methoxypyridin-4-yl)amino)azetidin-1-yl)methyl)thiazol-2-yl)acetamide]
170	CC(=O)Nc1ncc(CN2C[C@H](Oc3ccc(F)cn3)[C@H]2C)s1 [Example 2-9, N-(5-(((2R,3S)-3-((5-fluoropyridin-2-yl)oxy)-2-methylazetidin-1-yl)methyl)thiazol-2-yl)acetamide]
25	CC(=O)Nc1ncc(CN2C[C@H](Nc3ccc(C#N)cn3)[C@H]2C)s1 [Example 2-19, N-(5-(((2R,3S)-3-((5-cyanopyridin-2-yl)amino)-2-methylazetidin-1-yl)methyl)thiazol-2-yl)acetamide]
530	CC(=O)Nc1ncc(CN2CC(Oc3ncc(F)cn3)C2)s1 [Example 2-2]

Compound	IC50 [nM]
N-(5-43-(((5-methyl-1,2,4-oxadiazol-3-yl)methyl)amino)azetidin-1-yl)methyl)thiazol-2-yl)acetamide [Example 3-3]	900
